The text below walks through data of patent US12577559B2, “Method for creating a cDNA sequencing library” (priority 2019, dated 2026).

The subject of this assay is A549 cell line. Nature of the assay: RIF-Seq gene expression screen of compounds in A549 cells, 384 well plate. It is filed as cell-based. How it is done:
To evaluate if RIF-Seq can be used to detect changes in gene expression due to action of compounds (drugs) and if gene expression signatures can be used to predict mechanism of action of the compound, the inventors performed screen of two compounds in various concentration (delivered to cells in DMSO) and controls (DMSO alone) in high throughput fashion on automated platforms. A549 cell line was seeded using automatic cell dispenser onto low volume imaging plate to concentration of 2 000 cell per well. After over-night incubation, drugs were manually added to cells according to schematics presented in the FIG. 16A, cells were fixated and RIF-Seq protocol was executed using automated robotic liquid handlers. […] Using Gene Set Enrichment Analysis (GESA) inventors compared the differential gene expression data of samples treated with 8.3 μM vorinostat and controls and which differently expressed genes are annotated to pre-defined gene sets contained in the Broad Institute “Hallmarks” list (FIG. 16D).
Cells were cultured in T25 and T75 cell culturing flasks at 37° C. under 5% CO2 in RPMI1640 medium (HeLa, BjHTERT, MCF-7) or F12K medium (A549) with 10% complete fetal bovine serum (FBS), penicillin-streptomycin, and glutamine, up to 80% confluency. Before seeding cells into plates, cells were washed with PBS and dislodged using Tripsin-EDTA and resuspended in fresh medium to a concentration of 66 cells/μL. Manually (100 μL volume, 96 well plate) or by using automatic cell dispenser (30 μL volume, 384 well plate) cells were transferred into desired vessels and incubated over-night. For 96 well plates, the cell culture media were removed and plate was washed twice with 100 μl cold PBS in each well. Then 100 μl 3.7% PFA solution was added to each well and incubated at room temperature for 15 min. For 384 well plates, […] of freshly prepared 16% formaldehyde was added to 30 μl of cell media to obtain a final formaldehyde concentration of 3.7%. Fixation was performed for 20 minutes at room temperature. […]

As to `O=C(CCCCCCC(=O)Nc1ccccc1)NO` [vorinostat], the “Volcano plot of genes over- and under-expressed upon treatment” value (8.3 μM concentration vs DMSO controls) is listed as “number of genes with significantly altered expression”. The “Gene Set Enrichment Analysis (GESA) of differential gene expression against Broad Institute "Hallmarks" gene sets” value (8.3 μM vorinostat vs DMSO controls) was “down-regulation of the cell cycle and p53 pathways, E2F targets, cell cycle checkpoints and MYC targets”. Also, the “PCA analyses of gene expression of compound-grouped samples vs DMSO controls” value (various concentrations) was “Gradient of differences”.
